Assay results from paper PMC3361698 (Chemistry & biology, 2012).

Tests used:
[1] = molecular target: T1, SaPanKII (pantothenate kinase, type II) (Staphylococcus aureus, UniProt Q8NVG0); assay: coupled spectrophotometric kinase assay with purified enzyme; format: biochemical
[2] = molecular target: T2, EcPPCS (phosphopantothenoylcysteine synthetase) (Escherichia coli, UniProt P0ABQ0); assay: pyrophosphate release, HPLC/LCMS of cytidylylation; format: biochemical
[3] = molecular target: T3, SaCoaBC (bifunctional CoaBC protein, phosphopantothenoylcysteine synthetase) (Staphylococcus aureus, UniProt Q2G268); assay: progress curve inhibition analysis; format: biochemical
T3 sequence (Q2G268 1-399): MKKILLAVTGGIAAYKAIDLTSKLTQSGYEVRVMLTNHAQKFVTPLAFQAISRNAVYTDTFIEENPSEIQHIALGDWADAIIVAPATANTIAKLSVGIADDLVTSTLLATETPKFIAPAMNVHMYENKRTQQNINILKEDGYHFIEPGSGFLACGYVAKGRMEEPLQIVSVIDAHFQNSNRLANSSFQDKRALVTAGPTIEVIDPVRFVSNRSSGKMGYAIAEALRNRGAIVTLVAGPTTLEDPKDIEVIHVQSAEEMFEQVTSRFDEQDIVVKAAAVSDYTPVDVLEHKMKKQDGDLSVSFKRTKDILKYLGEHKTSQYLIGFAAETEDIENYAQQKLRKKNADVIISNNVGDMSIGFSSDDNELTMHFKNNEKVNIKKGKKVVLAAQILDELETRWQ

[4] = molecular target: T2, EcPPCS (phosphopantothenoylcysteine synthetase); assay: progress curves with Morrison fit, inhibitor formed in situ from P-CJ and CTP; format: biochemical
[5] = molecular target: T1, SaPanKII (pantothenate kinase, type II); format: biochemical
[6] = molecular target: T2, EcPPCS (phosphopantothenoylcysteine synthetase); assay: CD melting temperature shift; format: binding
[7] = molecular target: T2, EcPPCS (phosphopantothenoylcysteine synthetase); assay: CD melting temperature shift; format: binding; remark: listed apart in the source

T2 sequence (P0ABQ0 181-406): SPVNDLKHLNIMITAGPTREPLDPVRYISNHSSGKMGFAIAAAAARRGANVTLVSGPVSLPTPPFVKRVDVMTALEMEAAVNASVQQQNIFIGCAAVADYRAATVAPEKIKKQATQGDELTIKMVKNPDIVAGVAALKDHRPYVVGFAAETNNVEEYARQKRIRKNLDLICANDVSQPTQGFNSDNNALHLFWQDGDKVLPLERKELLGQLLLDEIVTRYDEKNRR
T1 sequence (Q8NVG0 whole entry): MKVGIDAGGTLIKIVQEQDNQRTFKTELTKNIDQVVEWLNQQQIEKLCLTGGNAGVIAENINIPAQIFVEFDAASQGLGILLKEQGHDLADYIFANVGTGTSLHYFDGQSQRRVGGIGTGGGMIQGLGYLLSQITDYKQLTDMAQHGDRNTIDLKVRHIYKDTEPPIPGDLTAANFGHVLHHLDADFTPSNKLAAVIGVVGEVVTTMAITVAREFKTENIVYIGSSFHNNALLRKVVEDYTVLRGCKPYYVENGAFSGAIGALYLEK

CC(C)(CO)[C@@H](O)C(=O)NCCC(=O)O [compound 2, pantothenic acid]
coupled spectrophotometric kinase assay with purified enzyme [1]: 30.2±8.7 mM^−1.s^−1 (kcat/Km)

CC(C)(COP(=O)(O)O)[C@@H](O)C(=O)N/C=C/C(=O)O [compound 13, P-CJ]
IC50 [2]: 2660 ± 160 nM

CC(C)(COP(=O)(O)O)[C@@H](O)C(=O)N/C=C/C(=O)OP(=O)(O)OC[C@H]1O[C@@H](n2ccc(N)nc2=O)[C@H](O)[C@@H]1O [compound 16, P-CJ-CMP]
Ki [3]: 13 nM | Ki [4]: 164 nM

CC(C)(CO)[C@@H](O)C(=O)N/C=C/C(=O)O [compound 1, CJ-15,801]
HPLC of phosphorylation and coupled spectrophotometric kinase assay with purifie [5]: 13.8±4.2 mM^−1.s^−1 (kcat/Km)

CC(C)(COP(=O)(O)O)[C@@H](O)C(=O)NCCC(=O)OP(=O)(O)OC[C@H]1O[C@@H](n2ccc(N)nc2=O)[C@H](O)[C@@H]1O [compound 14, P-Pan-CMP]
CD melting temperature shift (47.7 to 54.3 °C), formed in situ from P-Pan and CT [6]: 54.3 °C (Tm)

Nc1ccn([C@@H]2O[C@H](COP(=O)(O)OP(=O)(O)OP(=O)(O)O)[C@@H](O)[C@H]2O)c(=O)n1 [CTP]
CD melting temperature shift (47.7 to 49.7 °C) [7]: 49.7 °C (Tm)
